Patent publication US5001127A, “4-substituted pyrazolo[3,4-d]pyrimidine derivatives” (Ortho Pharmaceutical Corporation, priority 1989, dated 1991)
Read-outs that look alike come from different tables or passages of the source.

Tested on: Adult mongrel dogs
Assay: Cardiotonic activity in anesthetized dogs (MAP, HR, dP/dtmax, contractile force), iv infusion
Format: in vivo
Details: for change in vivo at 1.875 mg/kg / ED (50% increase): Canis lupus familiaris; for ED (50% increase): dose producing 50% increase above baseline in myocardial contractile force, graphical estimation (n<3) or linear regression (n≥3), read-out: contractile force (CF) ED50
Description: Adult mongrel dogs were anesthetized with sodium pentobarbital (45 mg/kg, i.p.) and artificially respired. Mean arterial pressure (MAP) was recorded from a cannulated femoral artery and drugs were infused into a cannulated femoral vein. The arterial pressure pulse was used to trigger a cardiotachometer for determination of heart rate (HR). Left ventricular pressure was measured with a Millar catheter and dP/dtmax was derived. A right thoracotomy was performed and myocardial contractile force (CF) was measured with a Walton Brodie strain gauge sutured to the right ventricle. The ventricular muscle was stretched to produce a baseline tension of 100 g. A standard dose of dopamine (10-15 ug/kg/min for 3 min) was administered to determine myocardial responsiveness to inotropic stimulation. Test compounds were solubilized in a small volume of DMF diluted to a final concentration of 10% in physiological saline. Alternatively, where possible, a soluble hydrochloride salt was prepared by addition of 0.1N HCl diluted in physiological saline. Vehicles were tested in appropriate volumes and found to exert less than a 5% effect on contractile force. For iv studies, compounds were administered by infusion pump (one drug per animal) at rates of 0.58-2.2 mL/min in three to four stepwise increasing doses. Each dose was infused over 5 min immediately after the effect of the previous dose peaked. MAP, HR, dP/dtmax and CF responses were continuously monitored on a Beckman or Gould recorder and expressed as a percent change from pre-drug control values vs. the cumulative dose of drug administered. For these studies, n represents the number of test animals used.
Quantitation of the inotropic potency was obtained by calculation of the contractile force (CF) ED50. This was defined as the dose of compound that produced a 50% increase above baseline in myocardial contractile force. The value was obtained from three to four point dose-response curves using either graphical estimation (n<3) or linear regression analysis (n≥3). Numbers in parentheses are number of animals screened.

[1] = cumulative dose 1.875 mg/kg, femoral artery, read-out: MAP (mean arterial pressure), % Δ from control
[2] = cumulative dose 1.875 mg/kg, read-out: HR (heart rate), % Δ from control
[3] = cumulative dose 1.875 mg/kg, read-out: dP/dt (left ventricular dP/dtmax), % Δ from control
[4] = cumulative dose 1.875 mg/kg, right ventricle strain gauge, read-out: CF (myocardial contractile force), % Δ from control

Compound	change in vivo at 1.875 mg/kg [1] [%]	change in vivo at 1.875 mg/kg [2] [%]	change in vivo at 1.875 mg/kg [3] [%]	change in vivo at 1.875 mg/kg [4] [%]	ED (50% increase) [mg/kg]	HR (heart rate), % Δ from control (cumulative dose 1.875 mg/kg) [% Δ from control]	dP/dt (left ventricular dP/dtmax), % Δ from control (cumulative dose 1.875 mg/kg) [% Δ from control]	MAP (mean arterial pressure), % Δ from control (cumulative dose 1.875 mg/kg, femoral artery) [% Δ from control]	CF (myocardial contractile force), % Δ from control (cumulative dose 1.875 mg/kg, right ventricle strain gauge) [% Δ from control]
OC(CSc1ncnc2[nH]ncc12)CN1CCN(C(c2ccccc2)c2ccccc2)CC1 (stereo not drawn) [Example 2, 4-[2-Hydroxy-1-[(diphenylmethyl)piperazin-4-yl)-3-propanylthio]-1H-pyrazolo[3,4-d]pyrimidine Hemihydrate]	-12	-11	48	97	–	–	–	–	–
OC(CSc1ncnc2[nH]ncc12)CN1CCN(C(c2ccc(F)cc2)c2ccc(F)cc2)CC1 (stereo not drawn) [Example 1]	-3	-10	124	205	0.225	–	–	–	–
CCN(CC(O)CN1CCN(C(c2ccc(F)cc2)c2ccc(F)cc2)CC1)c1ncnc2[nH]ncc12 (stereo not drawn) [Example 10, 4-[3-[4-Bis(4-fluorophenyl)methyl]-1-piperazinyl]-2-hydroxypropyl-N-ethylamino]-1H-pyrazolo[3,4-d]pyrimidine.1/4 Hydrate]	3	13	44	63	–	–	–	–	–
CN(CC(O)CN1CCN(C(c2ccc(F)cc2)c2ccc(F)cc2)CC1)c1ncnc2[nH]ncc12 (stereo not drawn) [Example 9, 4-[3-[4-Bis(4-fluorophenyl)methyl-1-piperazinyl]-2-hydroxypropylamino-N-methylamino-1H-pyrrazolo[3,4-d]pyrimidine Hemihydrate]	4	3	52	54	–	–	–	–	–
OC(COc1ncnc2c1cnn2C1CCCCO1)CN1CCN(C(c2ccc(F)cc2)c2ccc(F)cc2)CC1 (stereo not drawn) [Example 3, 4-[3-[4-[Bis(4-fluorophenyl)methyl]-piperazin-1-yl]-2-hydroxy-propoxy]-1-(tetrahydropyran-2-yl)pyrazolo[3,4-d]pyrimidine]	-13	1	1	14	–	–	–	–	–
OC(CSc1ncnc2[nH]ncc12)CN1CCN(C(c2ccc(Cl)cc2)c2ccc(Cl)cc2)CC1 (stereo not drawn) [Example 4, 4-[1-[1-[Bis(4-chlorophenyl)methyl]piperazin-4-yl]-2-hydroxy-3-pronanylthio]-1H-pyrazolo[3,4-d]pyrimidine]	8	1	90	163	0.45	–	–	–	–
OC(CSc1ncnc2c1cnn2CC1CO1)CN1CCN(C(c2ccccc2)c2ccccc2)CC1 (stereo not drawn) [Example 5, 1-(1,2-Epoxy-3-propanyl)-4-[1-(diphenylmethylpiperazin-4-yl]-2-hydroxy-3-propanylthio]-1H-pyrazolo[3,4-d]pyrimidine]	–	–	–	–	–	-14	28	-8	38
CC(=O)OC(CNc1ncnc2[nH]ncc12)CN1CCN(C(c2ccc(F)cc2)c2ccc(F)cc2)CC1 (stereo not drawn) [Example 8, 4-[3-[4-Bis(4-fluorophenyl)methyl]-1-piperazinyl]-2-acetoxypropylamino-1H-pyrazolo[3,4-d]pyrimidine Hemihydrate]	6	-1	61	135	–	–	–	–	–
OC(CNc1ncnc2[nH]ncc12)CN1CCN(C(c2ccc(F)cc2)c2ccc(F)cc2)CC1 (stereo not drawn) [Example 7, 4-[3-[4-Bis(4-fluorophenyl)methyl]-1-piperazinyl]-2-hydroxypropylamino-1H-pyrazolo[3,4-d]pyrimidine sesquihydrate]	6	-20	33	111	–	–	–	–	–
CON(CC(O)CN1CCN(C(c2ccc(F)cc2)c2ccc(F)cc2)CC1)c1ncnc2[nH]ncc12 (stereo not drawn) [Example 11, 4-[3-[4-Bis(4-fluorophenyl)methyl-1-piperazinyl-2-hydroxypropyl-N-methoxyamino]-(1H)-pyrazolo[3,4-d]pyrimidine.5/4 Hydrate]	-2	5	25	37	–	–	–	–	–
